Where a name gives a salt, the structure may show the parent alone. A value given as a limit tells only on which side of the number the result lay.

Holding throughout (assay type): biochemical
One assay deals with Bovine LOX (Bos taurus (Bovine), UniProt P33072). As to the kind of experiment: LOX inhibition, peroxidase-coupled Amplex Red amine oxidase assay. To be noted: 30 min preincubation at 37° C., putrescine substrate. In outline: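 Bovine LOX in 1.2 M urea, 50 mM sodium borate pH 8.2 with 1 μM mofegiline and 0.5 mM pargyline; putrescine at twice KM (e.g. 20 mM for LOX) with Amplex Red/HRP. Fluorescence (ex 565/em 590 nm) read kinetically over 30 min at 37–45 °C; IC50 from slopes.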
Bovine LOX, sequence (P33072 170-418): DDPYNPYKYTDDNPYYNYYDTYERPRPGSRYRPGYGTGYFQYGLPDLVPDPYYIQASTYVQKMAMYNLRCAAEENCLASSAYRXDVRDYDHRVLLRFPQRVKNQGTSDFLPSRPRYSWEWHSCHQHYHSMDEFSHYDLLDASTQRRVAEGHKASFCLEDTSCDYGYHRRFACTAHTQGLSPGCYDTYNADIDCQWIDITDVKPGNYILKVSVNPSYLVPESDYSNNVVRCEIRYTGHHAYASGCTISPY

The target of the next assay is Human LOXL2 (Homo sapiens (Human), UniProt Q9Y4K0). Kind of assay: LOXL2 inhibition, peroxidase-coupled Amplex Red amine oxidase assay. The settings on record: 30 min preincubation at 37° C., putrescine substrate. Summed up: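 Enzyme in 1.2 M urea, 50 mM sodium borate pH 8.2 with 1 μM mofegiline and 0.5 mM pargyline, preincubated 30 min at 37° C with compound (11-point CRC). Putrescine at twice KM (10 mM for LOXL2) with Amplex Red/HRP; fluorescence (ex 565, em 590) read kinetically 30 min; IC50 from slopes.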
Human LOXL2, sequence (Q9Y4K0 26-774): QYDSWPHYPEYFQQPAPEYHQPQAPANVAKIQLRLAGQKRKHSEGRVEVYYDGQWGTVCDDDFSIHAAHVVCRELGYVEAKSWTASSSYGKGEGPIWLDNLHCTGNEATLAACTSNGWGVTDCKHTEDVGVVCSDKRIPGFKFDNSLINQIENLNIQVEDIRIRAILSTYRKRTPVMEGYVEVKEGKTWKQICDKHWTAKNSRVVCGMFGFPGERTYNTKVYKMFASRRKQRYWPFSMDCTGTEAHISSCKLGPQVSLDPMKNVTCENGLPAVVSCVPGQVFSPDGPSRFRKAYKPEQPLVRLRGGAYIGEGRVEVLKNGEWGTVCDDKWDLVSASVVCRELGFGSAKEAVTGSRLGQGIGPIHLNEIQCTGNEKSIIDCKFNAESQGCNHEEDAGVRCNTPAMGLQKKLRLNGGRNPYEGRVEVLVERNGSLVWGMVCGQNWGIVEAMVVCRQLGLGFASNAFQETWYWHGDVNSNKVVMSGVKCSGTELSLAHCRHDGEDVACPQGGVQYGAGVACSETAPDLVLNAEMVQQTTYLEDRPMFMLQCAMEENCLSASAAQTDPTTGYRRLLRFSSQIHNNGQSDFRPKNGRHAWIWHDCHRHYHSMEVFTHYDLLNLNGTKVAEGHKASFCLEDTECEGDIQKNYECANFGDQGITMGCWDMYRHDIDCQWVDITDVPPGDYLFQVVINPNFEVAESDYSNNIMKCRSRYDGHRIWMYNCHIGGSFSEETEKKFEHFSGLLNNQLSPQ

The target in assay [1] is human recombinant SSAO/VAP-1 (Homo sapiens (Human), UniProt Q16853). As to the kind of experiment: Inhibition of human recombinant SSAO/VAP-1 amine oxidase activity. To be noted: 30 min preincubation at 37° C., 600 μM benzylamine. Summed up: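 Purified SSAO/VAP-1 (residues 34-763, expressed in CHO Lec 8 cells; 0.25 μg/mL) preincubated 30 min at 37° C with compound in 0.1 M sodium phosphate pH 7.4. Reaction mix of 600 μM benzylamine, 120 μM Amplex Red and 1.5 U/mL HRP added; fluorescence (ex 565/em 590 nm) read every 2.5 min for 30 min; IC50 from kinetic slopes over 4-11 point curves.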
human recombinant SSAO/VAP-1, sequence (Q16853 34-763): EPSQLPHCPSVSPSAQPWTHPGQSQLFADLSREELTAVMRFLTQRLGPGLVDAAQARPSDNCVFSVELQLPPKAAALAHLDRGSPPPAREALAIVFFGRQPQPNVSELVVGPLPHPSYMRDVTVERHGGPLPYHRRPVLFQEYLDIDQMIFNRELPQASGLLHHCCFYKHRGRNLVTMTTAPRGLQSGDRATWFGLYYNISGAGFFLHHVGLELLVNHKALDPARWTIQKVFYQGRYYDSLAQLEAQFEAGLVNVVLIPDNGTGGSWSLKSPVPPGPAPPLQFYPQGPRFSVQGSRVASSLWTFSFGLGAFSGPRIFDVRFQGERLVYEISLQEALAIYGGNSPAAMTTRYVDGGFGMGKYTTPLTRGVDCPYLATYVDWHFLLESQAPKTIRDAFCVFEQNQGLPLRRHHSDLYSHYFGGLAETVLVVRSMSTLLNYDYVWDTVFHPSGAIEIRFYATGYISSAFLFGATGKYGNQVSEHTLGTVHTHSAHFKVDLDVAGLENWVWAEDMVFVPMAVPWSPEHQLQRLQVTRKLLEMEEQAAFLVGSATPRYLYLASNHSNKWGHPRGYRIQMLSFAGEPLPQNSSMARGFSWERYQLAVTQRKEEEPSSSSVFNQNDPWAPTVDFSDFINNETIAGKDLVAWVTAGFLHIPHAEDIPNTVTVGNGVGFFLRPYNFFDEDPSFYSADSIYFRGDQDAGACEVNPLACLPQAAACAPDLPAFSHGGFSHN

The target of another assay is Recombinant human MAO-B (Homo sapiens (Human), UniProt P27338). Kind of assay: Inhibition of human recombinant MAO-B. The settings on record: benzylamine 100 μM. Summed up:
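Recombinant human MAO-B used as enzyme source (0.06 mg/mL, stated concentration). Run as for the human SSAO/VAP-1 assay, except benzylamine substrate at 100 μM.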

Recombinant human MAO-B, sequence (P27338 whole entry): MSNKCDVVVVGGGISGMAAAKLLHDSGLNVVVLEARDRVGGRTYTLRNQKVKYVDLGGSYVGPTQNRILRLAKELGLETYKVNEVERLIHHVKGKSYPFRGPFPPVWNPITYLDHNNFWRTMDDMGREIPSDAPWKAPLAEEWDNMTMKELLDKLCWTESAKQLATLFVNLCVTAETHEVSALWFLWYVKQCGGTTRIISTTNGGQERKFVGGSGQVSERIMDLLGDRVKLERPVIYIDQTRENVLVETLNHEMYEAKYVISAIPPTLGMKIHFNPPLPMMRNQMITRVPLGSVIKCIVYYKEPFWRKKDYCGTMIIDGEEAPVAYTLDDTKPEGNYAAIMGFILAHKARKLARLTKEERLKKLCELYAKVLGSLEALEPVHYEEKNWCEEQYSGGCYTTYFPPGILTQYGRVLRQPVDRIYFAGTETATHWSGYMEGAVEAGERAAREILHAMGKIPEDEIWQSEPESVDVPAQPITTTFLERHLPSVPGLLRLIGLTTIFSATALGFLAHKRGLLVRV

As to `Cc1c(-c2cccc(S(=O)(=O)N(C)C)c2)c2cc(C#N)ccc2n1C/C(F)=C/CN` [Compound 51, (Z)-3-(1-(4-amino-2-fluorobut-2-en-1-yl)-5-cyano-2-methyl-1H-indol-3-yl)-N,N-dimethylbenzenesulfonamide], the IC50 on Bovine LOX is over 300 nM; against Human LOXL2, under 300 nM; in assay [1], over 3000 nM; at Recombinant human MAO-B it was over 3000 nM.

For the molecule `Cc1c(-c2cccc(S(N)(=O)=O)c2)c2cc(C(=O)N(C)C)ccc2n1C/C(F)=C/CN` [Compound 54, (Z)-1-(4-amino-2-fluorobut-2-en-1-yl)-N,N,2-trimethyl-3-(3-sulfamoylphenyl)-1H-indole-5-carboxamide], the IC50 against Bovine LOX was over 300 nM; against Human LOXL2, under 300 nM; in assay [1] it was over 3000 nM; at Recombinant human MAO-B, over 3000 nM.

Consider `Cc1c(-c2cccc(S(=O)(=O)N(C)C)c2)c2cc(-c3ncon3)ccc2n1C/C(F)=C/CN` [Compound 55, (Z)-3-(1-(4-amino-2-fluorobut-2-en-1-yl)-2-methyl-5-(1,2,4-oxadiazol-3-yl)-1H-indol-3-yl)-N,N-dimethylbenzenesulfonamide], for which the IC50 against Bovine LOX was over 300 nM; against Human LOXL2 it was under 300 nM; in assay [1], over 3000 nM; on Recombinant human MAO-B, over 3000 nM.

In the case of `Cc1c(-c2cccc(C(F)(F)F)c2)c2cc(C(=O)N(C)C)ccc2n1C/C(F)=C/CN` [Compound 56, (Z)-1-(4-amino-2-fluorobut-2-en-1-yl)-N,N,2-trimethyl-3-(3-(trifluoromethyl)phenyl)-1H-indole-5-carboxamide], the IC50 was over 300 nM against Bovine LOX, under 300 nM against Human LOXL2, over 3000 nM in assay [1] and over 3000 nM on Recombinant human MAO-B.

As to `Cc1c(-c2cccc(S(=O)(=O)C(F)(F)F)c2)c2cc(C(=O)N(C)C)ccc2n1C/C(F)=C/CN` [Compound 57, (Z)-1-(4-amino-2-fluorobut-2-en-1-yl)-N,N,2-trimethyl-3-(3-((trifluoromethyl)sulfonyl)phenyl)-1H-indole-5-carboxamide], the IC50 at Bovine LOX was over 300 nM; at Human LOXL2, under 300 nM; in assay [1] it was over 3000 nM; on Recombinant human MAO-B, over 3000 nM.

As to `Cc1c(-c2cccc(S(=O)(=O)N(C)C)c2)c2cc(S(=O)(=O)N(C)C)ccc2n1C/C(F)=C/CN` [Compound 58, (Z)-1-(4-amino-2-fluorobut-2-en-1-yl)-3-(3-(N,N-dimethylsulfamoyl)phenyl)-N,N,2-trimethyl-1H-indole-5-sulfonamide], the IC50 was over 300 nM against Bovine LOX, under 300 nM at Human LOXL2, over 3000 nM in assay [1] and over 3000 nM at Recombinant human MAO-B.

`Cc1c(-c2cccc(S(=O)(=O)N(C)C)c2)c2cc(C(F)F)ccc2n1C/C(F)=C/CN` [Compound 59, (Z)-3-(1-(4-amino-2-fluorobut-2-en-1-yl)-5-(difluoromethyl)-2-methyl-1H-indol-3-yl)-N,N-dimethylbenzene-sulfonamide]: the IC50 at Bovine LOX is over 300 nM; against Human LOXL2, under 300 nM; in assay [1], over 3000 nM; at Recombinant human MAO-B, over 3000 nM.

Consider `Cc1c(-c2cccc(S(=O)(=O)N(C)C)c2)c2nc(O)ccc2n1C/C(F)=C/CN` [Compound 60, (Z)-3-(1-(4-amino-2-fluorobut-2-en-1-yl)-5-hydroxy-2-methyl-1H-pyrrolo[3,2-b]pyridin-3-yl)-N,N-dimethylbenzenesulfonamide Hydrochloride], for which the IC50 against Bovine LOX is over 300 nM; against Human LOXL2 it was under 300 nM; in assay [1], over 3000 nM; on Recombinant human MAO-B it was over 3000 nM.

Turning to `COc1ccc2c(n1)c(-c1cccc(S(=O)(=O)N(C)C)c1)c(C)n2C/C(F)=C/CN` [Compound 61, (Z)-3-(1-(4-amino-2-fluorobut-2-en-1-yl)-5-methoxy-2-methyl-1H-pyrrolo[3,2-b]pyridin-3-yl)-N,N-dimethylbenzenesulfonamide Dihydrochloride], the IC50 is over 300 nM against Bovine LOX, under 300 nM against Human LOXL2, over 3000 nM in assay [1] and over 3000 nM at Recombinant human MAO-B.

Regarding `Cc1c(-c2cccc(S(=O)(=O)N(C)C)c2)c2cc(Cl)ccc2n1C/C(F)=C/CN` [Compound 62, (Z)-3-(1-(4-amino-2-fluorobut-2-en-1-yl)-5-chloro-2-methyl-1H-indol-3-yl)-N,N-dimethylbenzenesulfonamide], the IC50 against Bovine LOX is over 300 nM; on Human LOXL2, under 300 nM; in assay [1] it was over 3000 nM; at Recombinant human MAO-B it was over 3000 nM.

Turning to `Cc1c(-c2cncc(S(=O)(=O)N(C)C)c2)c2ccccc2n1C/C(F)=C/CN` [Compound 63, (Z)-5-(1-(4-amino-2-fluorobut-2-en-1-yl)-2-methyl-1H-indol-3-yl)-N,N-dimethylpyridine-3-sulfonamide], the IC50 is over 300 nM at Bovine LOX, under 300 nM on Human LOXL2, over 3000 nM in assay [1] and over 3000 nM at Recombinant human MAO-B.

`Cc1c(-c2cncc(S(=O)(=O)N(C)C)c2)c2cc(Cl)ccc2n1C/C(F)=C/CN` [Compound 64, (Z)-5-(1-(4-amino-2-fluorobut-2-en-1-yl)-5-chloro-2-methyl-1H-indol-3-yl)-N,N-dimethylpyridine-3-sulfonamide]: the IC50 on Bovine LOX is over 300 nM; against Human LOXL2, under 300 nM; in assay [1], over 3000 nM; on Recombinant human MAO-B, over 3000 nM.

With `Cc1c(-c2cncc(S(C)(=O)=O)c2)c2cc(Cl)ccc2n1C/C(F)=C/CN` [Compound 65, (Z)-4-(5-chloro-2-methyl-3-(5-(methylsulfonyl)pyridin-3-yl)-1H-indol-1-yl)-3-fluorobut-2-en-1-amine], the IC50 on Bovine LOX is over 300 nM; on Human LOXL2, under 300 nM; in assay [1] it was over 3000 nM; at Recombinant human MAO-B, over 3000 nM.

Consider `CN(C)S(=O)(=O)c1cncc(-c2cn(C/C(F)=C/CN)c3ccc(Cl)cc23)c1` [Compound 66, (Z)-5-(1-(4-amino-2-fluorobut-2-en-1-yl)-5-chloro-1H-indol-3-yl)-N,N-dimethylpyridine-3-sulfonamide], for which the IC50 at Bovine LOX is over 300 nM; at Human LOXL2, under 300 nM; in assay [1], over 3000 nM; at Recombinant human MAO-B, over 3000 nM.

As for `Cc1c(-c2cncc(S(=O)(=O)N(C)C)c2)c2ccc(Cl)cc2n1C/C(F)=C/CN` [Compound 67, (Z)-5-(1-(4-amino-2-fluorobut-2-en-l-yl)-6-chloro-2-methyl-1H-indol-3-yl)-N,N-dimethylpyridine-3-sulfonamide, Dihydrochloride], the IC50 at Bovine LOX is over 300 nM; against Human LOXL2, under 300 nM; in assay [1], over 3000 nM; on Recombinant human MAO-B, over 3000 nM.

As for `COc1ccc2c(n1)c(-c1cccc(SC)c1)c(C)n2C/C(F)=C/CN` [Compound 68, (Z)-3-fluoro-4-(5-methoxy-2-methyl-3-(3-(methylthio)phenyl)-1H-pyrrolo[3,2-b]pyridin-1-yl)but-2-en-1-amine Dihydrochloride], the IC50 against Bovine LOX was over 300 nM; against Human LOXL2, under 300 nM; in assay [1], over 3000 nM; on Recombinant human MAO-B, over 3000 nM.

As for `COc1ccc2c(n1)c(-c1cccc(S(C)(=O)=O)c1)c(C)n2C/C(F)=C/CN` [Compound 69, (Z)-3-fluoro-4-(5-methoxy-2-methyl-3-(3-(methylsulfonyl)phenyl)-1H-pyrrolo[3,2-b]pyridin-1-yl)but-2-en-1-amine Dihydrochloride], the IC50 is over 300 nM at Bovine LOX, under 300 nM at Human LOXL2, over 3000 nM in assay [1] and over 3000 nM at Recombinant human MAO-B.

`CNS(=O)(=O)c1cncc(-c2c(C)n(C/C(F)=C/CN)c3ccc(Cl)cc23)c1` [Compound 70, (Z)-5-(1-(4-amino-2-fluorobut-2-en-1-yl)-5-chloro-2-methyl-1H-indol-3-yl)-N-methylpyridine-3-sulfonamide]: the IC50 on Bovine LOX is over 300 nM; against Human LOXL2 it was under 300 nM; in assay [1], over 3000 nM; on Recombinant human MAO-B, over 3000 nM.

For `Cc1c(-c2cncc(S(=O)(=O)N(C)C)c2)c2cc(F)ccc2n1C/C(F)=C/CN` [Compound 71, (Z)-5-(1-(4-amino-2-fluorobut-2-en-1-yl)-5-fluoro-2-methyl-1H-indol-3-yl)-N,N-dimethylpyridine-3-sulfonamide], the IC50 is over 300 nM against Bovine LOX, under 300 nM at Human LOXL2, over 3000 nM in assay [1] and over 3000 nM at Recombinant human MAO-B.

For the molecule `Cc1c(-c2cncc(S(=O)(=O)N(C)C)c2)c2ncc(Cl)cc2n1C/C(F)=C/CN` [Compound 72, (Z)-5-(1-(4-amino-2-fluorobut-2-en-1-yl)-6-chloro-2-methyl-1H-pyrrolo[3,2-b]pyridin-3-yl)-N,N-dimethylpyridine-3-sulfonamide], the IC50 was over 300 nM against Bovine LOX, under 300 nM against Human LOXL2, over 3000 nM in assay [1] and over 3000 nM on Recombinant human MAO-B.
